These results are taken from patent publication US20200046837A1, “UROGENITAL MEDICAL DEVICE FORMULATION BASED ON SUITABLE BIOCHEMICAL COMPOSITIONS FOR THE STABILIZATION OF THE ACIDITY AND THE REDOX STATE OF THE VAGINAL FLUID” (PROBIOSWISS AG, priority 2016, published 2020).

Data set [1] in a line: Redox potential and pH of media formulation before and after addition of test compounds. Particulars: M17-type medium. The method, then:
After measurement of redox potential and pH several compounds (nitrogen and sulphur sources) were added to this medium and their effect on pH and redox potential was determined.
Redox values were read after the signal was stable for at least 30 seconds. In addition the pH was measured using a standard pH Electrode connected to a MP225 pH Meter (Mettler Toledo).

For data set [2], the system named is Gram-positive bacteria such as Lactobacilli. Particulars: cited from earlier work.
A further data set concerns bacterial vaginosis. Particulars: women with a negative redox potential; cited from earlier work.
For the next data set, the system named is E. coli. Particulars: cited from earlier work.
For data set [3], the system named is tested lactobacilli (gasseri, crispatus and jensenii).
Data set [4] relates to Lactobacillus gasseri KS 120.1. Particulars: for OD: OD at 590 nm. Here is the method:
(§1) Growth was determined by measurement of optical density and pH at start, after 6 hours and after 24 hours.
(§2) All cultures were re-activated from cryopreserved (−80° C.) working stocks by cultivation on MRS agar for 1 to 3 days. A single colony from these plates was used to inoculate 5 ml of MRS broth. After incubation overnight, 10^7 cfu/ml were used to carry out the experiments.

For data set [5], the system named is Lactobacillus jensenii KS 119.1. Particulars: for OD: OD at 590 nm. Here is the method:
as §1, §2

For data set [6], the system named is Lactobacillus crispatus KS 119.4. Particulars: for OD: OD at 590 nm.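 As to all read-outs here: growth in MRS broth cultures, followed via optical density and pH at the start, after 6 h and after 24 h.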
For the next data set, the system named is Saccharomyces cerevisiae. Particulars: cited from earlier work.
The next data set deals with Aspergillus niger. Particulars: cited from earlier work.
In a further data set the test system is S. aureus. Particulars: cited from earlier work.
The test system of a further data set is Penicillium notatum. Particulars: cited from earlier work.
Another data set concerns K. pneumoniae. Particulars: cited from earlier work.

Structures are written as SMILES. Where two headings read alike, the source gives them in different places.

Turning to `CS(C)(=O)=O` [MSM, dimethylsulfone], the “effect of the added compound on the redox potential” value in [1] is on record as “high positive redox potential”.
Regarding `Clc1ccccc1C(c1ccccc1)(c1ccccc1)n1ccnc1` [Clotrimazole], the “activity against Gram-positive bacteria” value in data set [2] was “bactericidal activity”.
For `O=S(O)(O)=S` [thiosulfate, Na-Thiosulfate], the “redox potential (Eh) of the medium after addition of the compound” value (from here on “redox potential (Eh) of the medium”) in data set [1] was −36 mV.
On to `N[C@@H](CSSC[C@H](N)C(=O)O)C(=O)O` [Cystine], for which, in data set [1], the “effect of the added compound on the redox potential” value is “high positive redox potential”.
In the case of `Cc1ncc([N+](=O)[O-])n1CCO` [metronidazole], the “vaginal redox potential after a successful cure” value in the data set with bacterial vaginosis is listed as “returned to a positive one”.
Take `N[C@@H](CS)C(=O)O` [Cysteine]: the “redox potential (Eh) of the medium” value in data set [1] is recorded as −103 mV.
As for `N[C@@H](CCC(=O)O)C(=O)O` [glutamic acid, L-Glutamic acid], the “redox potential (Eh) of the medium” value in data set [1] is on record as approximately 300 mV.
With `C/C=C/C=C/C(=O)[O-].[K+]` [Potassium Sorbate, potassium sorbate], the “microbiostatic concentration for the inhibition of growth” value in the data set on E. coli was 50 to 100 µg/mL; in the data set on Saccharomyces cerevisiae it was 50 to 100 µg/mL; in the data set on Aspergillus niger it was 200 to 500 µg/mL; in the data set on S. aureus it was 50 to 100 µg/mL; with Penicillium notatum, 200 to 500 µg/mL; in the data set with K. pneumoniae it was 50 to 100 µg/mL. For the same compound, the “concentration required for a slight inhibition” value in data set [3] is on record as not below 0.5%. Besides, the Interpretation in data set [4] (potassium sorbate 1.00%) is reported as 1; in data set [4] (potassium sorbate […]), 1; in data set [5] (potassium sorbate 0.10%), 0; in data set [5] (potassium sorbate 0.50%) it was 1; in data set [5] (potassium sorbate 1.00%), 2; in data set [5] (potassium sorbate […]) it was 2. Moreover, the Interpretation in [6] (potassium sorbate 0.01%) is 0; in data set [6] (potassium sorbate 0.05%), 0; in data set [6] (potassium sorbate 0.10%), 0; in data set [6] (potassium sorbate 0.50%), 0; in data set [6] (potassium sorbate 1.00%), 1; in [6] (potassium sorbate […]), 1. Besides, the pH in data set [4] (potassium sorbate 1.00%, 0 h) came to 5.16; in data set [4] (potassium sorbate 1.00%, 6 h) it was 5; in data set [4] (potassium sorbate 1.00%, 24 h), 5.07; in [4] (potassium sorbate […], 0 h), 5.31; in data set [4] (potassium sorbate […], 6 h) it was 5.26; in data set [4] (potassium sorbate […], 24 h), 5.26. Further, the pH amounted to 4.5 in [5] (potassium sorbate 0.10%, 0 h); 4.5 in [5] (potassium sorbate 0.10%, 6 h); 4.5 in [5] (potassium sorbate 0.10%, 24 h); 4.5 in data set [5] (potassium sorbate 0.50%, 0 h); 4.5 in data set [5] (potassium sorbate 0.50%, 6 h); 4.85 in [5] (potassium sorbate 0.50%, 24 h). Also, the pH in data set [5] (potassium sorbate 1.00%, 0 h) worked out at 5.03; in [5] (potassium sorbate 1.00%, 6 h), 5.01; in [5] (potassium sorbate 1.00%, 24 h), 5.09; in data set [5] (potassium sorbate […], 0 h), 5.32; in [5] (potassium sorbate […], 6 h), 5.18; in data set [5] (potassium sorbate […], 24 h), 5.25. In addition, the pH in [6] (potassium sorbate 0.01%, 0 h) was 4.71; in data set [6] (potassium sorbate 0.01%, 6 h) it was 4.42; in data set [6] (potassium sorbate 0.01%, 24 h), 4.35; in [6] (potassium sorbate 0.05%, 0 h) it was 4.69; in data set [6] (potassium sorbate 0.05%, 6 h), 4.43; in data set [6] (potassium sorbate 0.05%, 24 h) it was 4.32. Besides, the pH in [6] (potassium sorbate 0.10%, 0 h) amounted to 4.7; in data set [6] (potassium sorbate 0.10%, 6 h) it was 4.48; in data set [6] (potassium sorbate 0.10%, 24 h), 4.44; in data set [6] (potassium sorbate 0.50%, 0 h), 4.97; in [6] (potassium sorbate 0.50%, 6 h), 4.73; in [6] (potassium sorbate 0.50%, 24 h), 4.77. Further, the pH in data set [6] (potassium sorbate 1.00%, 0 h) is given as 5.8; in data set [6] (potassium sorbate 1.00%, 6 h) it was 5.01; in data set [6] (potassium sorbate 1.00%, 24 h) it was 5.08; in data set [6] (potassium sorbate […], 0 h) it was 5.32; in data set [6] (potassium sorbate […], 6 h) it was 5.2; in data set [6] (potassium sorbate […], 24 h), 5.26. Moreover, the OD in data set [4] (potassium sorbate 1.00%, 0 h) is reported as 0.54; in [4] (potassium sorbate 1.00%, 6 h), 0.78; in data set [4] (potassium sorbate 1.00%, 24 h), 0.97; in [4] (potassium sorbate […], 0 h) it was 0.53; in [4] (potassium sorbate […], 6 h), 0.73; in data set [4] (potassium sorbate […], 24 h) it was 0.72. Also, the OD in data set [5] (potassium sorbate 0.10%, 0 h) is given as 0.08; in data set [5] (potassium sorbate 0.10%, 6 h), 0.23; in data set [5] (potassium sorbate 0.10%, 24 h) it was 0.44; in data set [5] (potassium sorbate 0.50%, 0 h) it was 0.07; in [5] (potassium sorbate 0.50%, 6 h), 0.11; in data set [5] (potassium sorbate 0.50%, 24 h) it was 0.124. Further, the OD in data set [5] (potassium sorbate 1.00%, 0 h) is reported as 0.18; in data set [5] (potassium sorbate 1.00%, 6 h), 0.26; in [5] (potassium sorbate 1.00%, 24 h), 0.16; in [5] (potassium sorbate […], 0 h), 0.17; in [5] (potassium sorbate […], 6 h) it was 0.24; in data set [5] (potassium sorbate […], 24 h), 0.13. Further, the OD was determined as 0.7 in [6] (potassium sorbate 0.01%, 0 h); 1.36 in [6] (potassium sorbate 0.01%, 6 h); 1.47 in data set [6] (potassium sorbate 0.01%, 24 h); 0.6 in [6] (potassium sorbate 0.05%, 0 h); 1.16 in [6] (potassium sorbate 0.05%, 6 h); 1.24 in data set [6] (potassium sorbate 0.05%, 24 h). The OD is listed as 0.68 in data set [6] (potassium sorbate 0.10%, 0 h); 1.34 in data set [6] (potassium sorbate 0.10%, 6 h); 1.24 in [6] (potassium sorbate 0.10%, 24 h); 0.67 in data set [6] (potassium sorbate 0.50%, 0 h); 1.24 in data set [6] (potassium sorbate 0.50%, 6 h); 1.15 in data set [6] (potassium sorbate 0.50%, 24 h). The OD in [6] (potassium sorbate 1.00%, 0 h) was determined as 0.65; in data set [6] (potassium sorbate 1.00%, 6 h), 1.13; in data set [6] (potassium sorbate 1.00%, 24 h), 0.96; in data set [6] (potassium sorbate […], 0 h), 0.64; in data set [6] (potassium sorbate […], 6 h), 0.99; in data set [6] (potassium sorbate […], 24 h), 0.76.
